Results: paper PMC6815936, “A Pan-Cyclophilin Inhibitor, CRV431, Decreases Fibrosis and Tumor Development in Chronic Liver Disease Models” (The Journal of Pharmacology and Experimental Therapeutics, 2019)
Square brackets hold non-standard residues; d marks the D form. Peptide text beside a SMILES is read from it. NMeThr(4R-Me,4-(CH2)6NHAc) = CN[C@H](C(=O)O)[C@H](O)[C@H](C)CCCCCCNC(C)=O; NMeL = CN[C@@H](CC(C)C)C(=O)O; NMeV = CN[C@H](C(=O)O)C(C)C; dNMeA = CN[C@H](C)C(=O)O; Abu = CC[C@H](N)C(=O)O

Key:
recombinant Cyp B (PPIB) = molecular target: T1, recombinant Cyp B (PPIB) (Homo sapiens, UniProt P23284); assay: Cyclophilin isomerase assay, Cyp B; type: biochemical
T1 construct: purchased Cedarlane Laboratories CLENZ313
Experimental: Cyclophilin isomerase activity was measured with an assay described by [Kofron et al. (1991)] with adaptations to 96-well plates. In this assay cyclophilins catalyze cis-to-trans isomerization of a proline peptide bond in a nitroanalide-coupled peptide substrate followed by cleavage of the trans-conformer peptide by α-chymotrypsin, release of the p-nitroaniline chromogen, and quantitation of p-nitroaniline by absorbance at 410 nm. All solutions were pre-equilibrated, and all assays were conducted at 4°C. Plates were preloaded with 5 µl peptide solution consisting of N-succinyl-alanine-alanine-proline-phenylalanine-p-nitroanilide (S7388; Sigma-Aldrich) and 400 mM lithium chloride (310468; Sigma-Aldrich) in anhydrous trifluoroethanol (T63002; Sigma-Aldrich). […] Absorbance measurements with a BMG Polarstar Galaxy plate reader were begun immediately and made at 6-second intervals for 6 minutes. Reaction curves were represented by increases in optical density 410 nm as a function of reaction time. For Ki determinations, initial reaction velocities were obtained from the reaction curves and plotted relative to substrate concentration, and the curves were fitted to the enzyme competitive inhibition model (GraphPad Prism) to derive Ki, maximum velocity (Vmax), and Michaelis constant values. […]

[1] = test system: CCl4-induced liver fibrosis in C57BL/6 mice; assay: Carbon tetrachloride mouse model of liver fibrosis; type: in vivo; settings: 50 mg/kg per day oral for 6 weeks, vs vehicle
Experimental: Carbon tetrachloride (CCl4)–induced liver fibrosis was conducted in C57BL/6J male mice starting at 7 weeks of age. Mice were injected intraperitoneally twice per week with 0.5–0.75 ml/kg CCL4 (289116; Sigma-Aldrich) and corn oil (0.05 ml total dose per mouse) for 6 weeks. CRV431, obeticholic acid (OCA, HY-12222; MedChemExpress), and vehicle were administered by daily oral gavage for the entire duration of the study. CRV431 and OCA were dissolved in a self-microemulsifying drug vehicle ([Trepanier et al., 2018]), and then diluted with PBS. CRV431 was administered at 50 mg/kg per day, and OCA was administered at 10 mg/kg per day.
Blood and livers were collected at the end of the NASH and CCl4 studies. In some studies, serum or plasma was isolated from freshly-collected blood, whereas in other studies blood was frozen for later analysis of CRV431 concentration. Livers were immersion-fixed in zinc-formalin and paraffin-embedded for histologic processing. Liver sections were stained with hematoxylin and eosin for assessment of inflammation, ballooning, and steatosis, and with sirius red for assessment of collagen I and III (fibrosis). Sirius red staining was quantified by blinded analysis in one section per liver using ImageJ software. […]

[2] = test system: NASH model in C57BL/6 mice; assay: Mouse NASH model (streptozotocin plus high-fat diet); type: in vivo; parameters: NAS score / Steatosis score / Inflammation score / Ballooning score: scale not given here
Experimental: NASH was initiated in 2-day-old C57BL/6J male mice by intraperitoneal injection with 200 μg streptozotocin (S0130; Sigma-Aldrich) to disrupt pancreatic β cells, induce diabetes, and promote adiposity in the liver. Mice were weaned at 3 weeks of age and begun on a high-fat diet with 60%kcal fat (D12492N; Research Diets) for the duration of the studies. Additionally, mice with a regular diet (D12450KN; Research Diets) and without streptozotocin were included as negative controls. CRV431 was dissolved in a self-microemulsifying drug vehicle and then diluted with PBS and administered daily by oral gavage at 50 mg/kg per day. The start time and duration of vehicle and CRV431 treatments varied depending on the study.
Blood and livers were collected at the end of the NASH and CCl4 studies. In some studies, serum or plasma was isolated from freshly-collected blood, whereas in other studies blood was frozen for later analysis of CRV431 concentration. Livers were immersion-fixed in zinc-formalin and paraffin-embedded for histologic processing. Liver sections were stained with hematoxylin and eosin for assessment of inflammation, ballooning, and steatosis, and with sirius red for assessment of collagen I and III (fibrosis). Sirius red staining was quantified by blinded analysis in one section per liver using ImageJ software. Scoring of steatosis, ballooning, and inflammation (sum of portal and lobular inflammation) in liver sections was based on criteria and training by a board-certified pathologist.
Liver tumors were quantified in freshly collected livers at sacrifice in one NASH study ending at 30 weeks of age. Liver tumors were counted and their diameters measured with a ruler and classified as small (>0.1 cm diameter, but not exceeding 0.5 cm), medium (0.5–1 cm diameter), or large (>1 cm diameter).

BCRP = BCRP (Homo sapiens, UniProt Q9UNQ0)
Experimental: Briefly, PGP and breast cancer resistance protein inhibition was assessed by measuring the bidirectional transport of substrates across cell monolayers in transwell culture plates. Efflux ratios were represented as (apical-to-basal flux)/(basal-to-apical flux), and efflux ratios were plotted relative to CRV431 concentration to derive IC50 values. Bile salt export pump (BSEP) and multidrug resistance protein (MRP)1 inhibition was assessed by measuring substrate accumulation in membrane vesicles prepared from insect Sf9 cells and recombinantly expressing BSEP and MRP2 (Genomembrane). Inhibition of all other transporters was assessed by measuring substrate accumulation in cells recombinantly expressing the transporter. Known inhibitors of each transporter were used as positive controls for the assays. […] Specific, ATP-dependent uptake was determined by subtracting uptake in negative control vesicles and cells not expressing the transporters, and secondly by subtracting uptake in the absence of ATP in the assays. Specific, ATP-dependent uptake was plotted as a function of CRV431 concentrations and fitted to nonlinear regressions to obtain IC50 values.

MRP2 = MRP2 (Homo sapiens, UniProt Q92887); assay: Drug transporter inhibition, MRP2; settings: MRP2, Vesicles
Experimental: (§1) Bile salt export pump (BSEP) and multidrug resistance protein (MRP)1 inhibition was assessed by measuring substrate accumulation in membrane vesicles prepared from insect Sf9 cells and recombinantly expressing BSEP and MRP2 (Genomembrane). Inhibition of all other transporters was assessed by measuring substrate accumulation in cells recombinantly expressing the transporter. Known inhibitors of each transporter were used as positive controls for the assays. […] Specific, ATP-dependent uptake was determined by subtracting uptake in negative control vesicles and cells not expressing the transporters, and secondly by subtracting uptake in the absence of ATP in the assays. Specific, ATP-dependent uptake was plotted as a function of CRV431 concentrations and fitted to nonlinear regressions to obtain IC50 values.

OCT2 = OCT2 (Homo sapiens, UniProt O15244); assay: Drug transporter inhibition, OCT2; settings: OCT2, HEK293
Experimental: as §1

[3] = Week 3–14 Treatment, 50 mg/kg per day oral
[4] = Week 8–14 Treatment, 50 mg/kg per day oral
[5] = Week 20–30 Treatment, 50 mg/kg per day oral

T1 sequence (P23284 34-216): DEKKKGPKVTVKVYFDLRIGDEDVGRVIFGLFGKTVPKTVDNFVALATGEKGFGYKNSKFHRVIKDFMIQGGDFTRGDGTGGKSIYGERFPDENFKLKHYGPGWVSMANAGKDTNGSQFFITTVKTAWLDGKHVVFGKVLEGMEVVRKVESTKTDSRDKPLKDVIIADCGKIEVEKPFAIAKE
OCT2, sequence (O15244 whole entry): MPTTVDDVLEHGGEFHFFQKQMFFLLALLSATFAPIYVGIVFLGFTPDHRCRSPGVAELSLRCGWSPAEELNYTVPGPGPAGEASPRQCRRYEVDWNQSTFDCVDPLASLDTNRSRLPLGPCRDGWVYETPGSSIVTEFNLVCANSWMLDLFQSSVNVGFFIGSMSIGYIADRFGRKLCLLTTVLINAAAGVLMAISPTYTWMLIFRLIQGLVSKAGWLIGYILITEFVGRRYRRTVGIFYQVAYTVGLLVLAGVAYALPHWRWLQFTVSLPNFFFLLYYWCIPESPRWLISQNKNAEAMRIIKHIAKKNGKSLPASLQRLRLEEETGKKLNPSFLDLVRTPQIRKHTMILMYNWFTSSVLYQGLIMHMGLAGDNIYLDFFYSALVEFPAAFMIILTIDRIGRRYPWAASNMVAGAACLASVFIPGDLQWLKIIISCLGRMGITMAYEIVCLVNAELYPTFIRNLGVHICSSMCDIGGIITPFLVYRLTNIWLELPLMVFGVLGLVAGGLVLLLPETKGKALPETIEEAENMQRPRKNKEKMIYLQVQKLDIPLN
MRP2, sequence (Q92887 whole entry): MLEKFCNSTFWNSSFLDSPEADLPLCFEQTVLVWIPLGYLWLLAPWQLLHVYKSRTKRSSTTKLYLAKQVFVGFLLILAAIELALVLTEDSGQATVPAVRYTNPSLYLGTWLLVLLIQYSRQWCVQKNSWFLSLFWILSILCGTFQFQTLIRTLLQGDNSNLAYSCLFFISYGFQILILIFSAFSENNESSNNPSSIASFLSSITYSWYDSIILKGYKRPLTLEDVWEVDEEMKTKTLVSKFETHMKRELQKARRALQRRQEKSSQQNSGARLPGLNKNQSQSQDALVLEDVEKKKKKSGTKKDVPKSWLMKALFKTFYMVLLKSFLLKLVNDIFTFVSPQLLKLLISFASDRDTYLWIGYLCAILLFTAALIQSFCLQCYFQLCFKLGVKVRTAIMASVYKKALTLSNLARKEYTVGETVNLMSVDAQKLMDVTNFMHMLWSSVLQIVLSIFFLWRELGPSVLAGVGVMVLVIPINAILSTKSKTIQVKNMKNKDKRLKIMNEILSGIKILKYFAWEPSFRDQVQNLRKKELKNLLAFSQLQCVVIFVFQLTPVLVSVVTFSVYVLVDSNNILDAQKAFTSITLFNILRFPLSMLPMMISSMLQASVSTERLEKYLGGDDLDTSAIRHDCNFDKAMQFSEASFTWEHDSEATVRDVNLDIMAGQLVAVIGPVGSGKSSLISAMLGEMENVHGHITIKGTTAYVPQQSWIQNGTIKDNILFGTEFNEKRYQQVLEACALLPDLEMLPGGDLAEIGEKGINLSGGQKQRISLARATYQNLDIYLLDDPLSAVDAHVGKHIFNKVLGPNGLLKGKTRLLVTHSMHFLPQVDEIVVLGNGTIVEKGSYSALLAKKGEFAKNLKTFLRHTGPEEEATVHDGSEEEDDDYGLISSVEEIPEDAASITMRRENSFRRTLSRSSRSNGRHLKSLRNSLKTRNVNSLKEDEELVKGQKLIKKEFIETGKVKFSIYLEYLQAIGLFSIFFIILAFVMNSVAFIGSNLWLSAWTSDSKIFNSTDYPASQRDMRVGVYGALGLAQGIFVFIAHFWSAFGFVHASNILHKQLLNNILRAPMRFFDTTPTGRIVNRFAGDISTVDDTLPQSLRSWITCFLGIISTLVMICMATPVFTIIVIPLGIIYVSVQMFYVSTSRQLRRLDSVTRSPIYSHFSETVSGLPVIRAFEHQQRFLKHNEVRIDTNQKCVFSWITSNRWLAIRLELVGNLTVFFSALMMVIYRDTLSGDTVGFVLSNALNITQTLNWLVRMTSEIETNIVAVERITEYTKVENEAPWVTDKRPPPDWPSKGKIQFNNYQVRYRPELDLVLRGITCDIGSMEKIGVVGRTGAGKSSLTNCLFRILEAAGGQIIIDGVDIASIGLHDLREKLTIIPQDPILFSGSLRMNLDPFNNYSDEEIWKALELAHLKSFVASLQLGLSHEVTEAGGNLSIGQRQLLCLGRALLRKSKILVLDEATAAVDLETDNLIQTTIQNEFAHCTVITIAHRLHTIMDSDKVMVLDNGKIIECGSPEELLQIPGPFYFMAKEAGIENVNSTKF
BCRP, sequence (Q9UNQ0 whole entry): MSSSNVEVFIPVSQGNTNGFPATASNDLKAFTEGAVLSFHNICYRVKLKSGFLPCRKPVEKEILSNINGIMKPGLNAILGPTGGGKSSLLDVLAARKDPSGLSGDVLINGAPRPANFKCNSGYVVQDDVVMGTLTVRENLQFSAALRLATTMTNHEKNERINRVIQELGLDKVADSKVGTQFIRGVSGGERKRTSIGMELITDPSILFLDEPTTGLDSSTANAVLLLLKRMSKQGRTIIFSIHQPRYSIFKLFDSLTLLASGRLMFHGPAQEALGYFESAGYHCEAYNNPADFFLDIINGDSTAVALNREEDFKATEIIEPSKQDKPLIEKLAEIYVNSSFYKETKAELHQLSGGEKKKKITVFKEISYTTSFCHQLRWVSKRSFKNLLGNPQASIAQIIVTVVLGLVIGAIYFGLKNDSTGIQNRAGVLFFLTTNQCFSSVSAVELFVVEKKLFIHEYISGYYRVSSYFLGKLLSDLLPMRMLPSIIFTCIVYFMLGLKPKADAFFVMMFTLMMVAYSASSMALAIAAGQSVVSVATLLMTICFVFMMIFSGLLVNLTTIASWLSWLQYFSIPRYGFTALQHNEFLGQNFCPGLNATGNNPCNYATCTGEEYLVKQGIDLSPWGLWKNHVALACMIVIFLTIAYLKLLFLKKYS

For CC[C@@H]1NC(=O)[C@H]([C@H](O)[C@H](C)CCCCCCNC(C)=O)N(C)C(=O)[C@H](C(C)C)N(C)C(=O)[C@H](CC(C)C)N(C)C(=O)[C@H](CC(C)C)N(C)C(=O)[C@@H](C)NC(=O)[C@H](C)NC(=O)[C@H](CC(C)C)N(C)C(=O)[C@H](C(C)C)NC(=O)[C@H](CC(C)C)N(C)C(=O)[C@@H](C)N(C)C1=O [CRV431] (cyclo(A[dA][NMeL][NMeL][NMeV][NMeThr(4R-Me,4-(CH2)6NHAc)][Abu][dNMeA][NMeL]V[NMeL])), the “IC50 Fold Difference” value (recombinant Cyp B (PPIB); CsA IC50 vs CRV431 IC50, PPIB) was 3.7, the IC50 (recombinant Cyp B (PPIB); PPIB (Cyp B), one peptide substrate concentration) was 0.0031 µM and the “lowering of the amount of sirius red staining” value [1] was 43%. The Ballooning score [2, 3] was 0.9 ± 0.6, the Blood glucose [2, 3] was 319 ± 79 and the Body weight [2, 3] was 33.5 ± 5.2 (P < 0.05). For the same molecule, the Inflammation score [2, 3] was 1.5 ± 0.7, the Liver weight [2, 3] was 1.28 ± 0.28 and the NAS score [2, 3] was 3.7 ± 2.2 (P < 0.05). For the same molecule, the Sirius red % [2, 3] was 1.96 ± 0.72 (P < 0.05) %, the Steatosis score [2, 3] was 1.3 ± 1.1 and the Ballooning score [2, 4] was 1.8 ± 0.5. For the same molecule, the Blood glucose [2, 4] was 463 ± 143, the Body weight [2, 4] was 26.1 ± 5.1 and the Inflammation score [2, 4] was 2.4 ± 0.7. The Liver weight [2, 4] was 1.35 ± 0.28, the NAS score [2, 4] was 6.1 ± 1.1 and the Sirius red % [2, 4] was 1.02 ± 0.48 (P < 0.05) %. It also gave a Steatosis score [2, 4] of 2.0 ± 0.5, a Blood glucose [2, 5] of 405 ± 134 and a Body weight [2, 5] of 41.6 ± 8.9. For the same molecule, the Liver weight [2, 5] was 3.04 ± 1.19 (P < 0.05), the Sirius red % [2, 5] was 1.62 ± 0.57 (P < 0.05) % and the Tumor number [2, 5] was 4.5 ± 4.4. For the same molecule, the Tumor score ([2]; Week 20–30 Treatment, 50 mg/kg per day oral, 0–7 scale) was 2.25 ± 2.0 (P < 0.05), the “reduction in the number and size of liver tumors” value ([2]; late, oncogenic stage of the NASH model (abstract)) was 50% and the “fibrosis levels lower after CRV431 treatment compared with vehicle treatment” value ([2]; three NASH model studies, 50 mg/kg per day oral, sirius red) was 37%–46%. For the same molecule, the livers lacking tumors ([2]; treatment from weeks 20 to 30) was 2 of 10, the “decrease of tumor burden (score of tumor number and size)” value ([2]; treatment from weeks 20 to 30, vs vehicle) was 52% and the IC50 (BCRP) was 23 µM. For the same molecule, the “CRV431 Inhibitory Potency vs. CsA” value (MRP2) was 2.1× less, the “CRV431 Inhibitory Potency vs. CsA” value (OCT2) was “Same (no inhibition)” and the IC50 (OCT2) was greater than 50 µM.
